Test systems include COLO 205; UACC-257; SK-MEL-28; M14; SF-295; NCI-H226; SNB-75; SF-268; T47D; SN12C; LOX IMVI; A549; MDA-MB-435; K562; EKVX; SNB-19; RXF 393; UO-31; Malme-3M.
Holding throughout (assay): inhibition of tumour cell growth, NCI panel, 48 h

Each structure is given as a SMILES string.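 Method: 48-hour compound exposure of cells in 96-well plates, five concentrations, linear interpolation of endpoints. GI50 = concentration required for 50% inhibition of growth.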 The source made the active and inactive calls. No stated cut-off is given here; in the data, active = GI50 up to about 1.1 µM and inactive = higher.

For the molecule `OC(c1cc(C23CC4CC(CC(C4)C2)C3)nc2c(Cl)cc(Cl)cc12)C1CCCCN1` (stereo not given), the GI50 in the experiment with COLO 205 is 1.71 µM (inactive); in the experiment on UACC-257, 1.97 µM (inactive); in the experiment with SK-MEL-28, 2.06 µM (inactive); in the experiment with M14, 1.8 µM (inactive); with SF-295, 1.67 µM (inactive); in the experiment with NCI-H226 it was 2.07 µM (inactive). The GI50 was 1.73 µM (inactive) in the experiment on SNB-75; 1.79 µM (inactive) in the experiment on SF-268; 1.79 µM (inactive) in the experiment on T47D; 1.62 µM (inactive) in the experiment with SN12C; 1.49 µM (inactive) in the experiment with LOX IMVI; 1.82 µM (inactive) with A549. For the same molecule, the GI50 is 1.67 µM (inactive) in the experiment on MDA-MB-435; 1.51 µM (inactive) with K562; 1.73 µM (inactive) with EKVX; 1.6 µM (inactive) in the experiment with SNB-19; 1.6 µM (inactive) with RXF 393; 0.204 µM (active) in the experiment with UO-31. The GI50 in the experiment on Malme-3M is 1.81 µM (inactive).
For `Cc1ccc(OCC2=NN3C(=O)/C(=C\c4ccc([N+](=O)[O-])o4)SC3N2)cc1` (stereo not given), the GI50 was 3.19 µM (inactive) with COLO 205; 12.8 µM (inactive) in the experiment with UACC-257; 12.7 µM (inactive) in the experiment on SK-MEL-28; 8.47 µM (inactive) in the experiment on M14; 14.8 µM (inactive) with SF-295; 15.4 µM (inactive) in the experiment on NCI-H226. Also, the GI50 is 15.9 µM (inactive) with SNB-75; 4.07 µM (inactive) in the experiment with SF-268; 2.17 µM (inactive) with T47D; 16.9 µM (inactive) in the experiment with SN12C; 3.66 µM (inactive) with LOX IMVI; 19 µM (inactive) in the experiment on A549. For the same molecule, the GI50 with MDA-MB-435 was 5.47 µM (inactive); in the experiment with K562, 0.711 µM (active); with EKVX, 12.1 µM (inactive); with SNB-19, 17.8 µM (inactive); in the experiment on RXF 393 it was 14.9 µM (inactive); in the experiment with UO-31, 15.4 µM (inactive). Further, the GI50 in the experiment with Malme-3M is 2.66 µM (inactive).
As for `COc1ccc2nc3c([N+](=O)[O-])ccc(NCCCN(C)C)c3c(N)c2c1`, the GI50 in the experiment on COLO 205 is 0.764 µM (active); with UACC-257, > 10 µM (inactive); with SK-MEL-28 it was 1.62 µM (inactive); in the experiment on M14, 1.9 µM (inactive); in the experiment with SF-295, 1.37 µM (inactive); with NCI-H226, 1.99 µM (inactive). Also, the GI50 was 1.66 µM (inactive) with SNB-75; 1.45 µM (inactive) in the experiment with SF-268; 1.92 µM (inactive) with T47D; 1.6 µM (inactive) in the experiment on SN12C; 1.59 µM (inactive) in the experiment on LOX IMVI; 1.49 µM (inactive) in the experiment on A549. The GI50 is 1.77 µM (inactive) in the experiment with MDA-MB-435; 0.41 µM (active) in the experiment on K562; 1.74 µM (inactive) in the experiment with EKVX; 2.01 µM (inactive) in the experiment on SNB-19; 1.29 µM (inactive) in the experiment on RXF 393; 2.14 µM (inactive) with UO-31. Moreover, the GI50 in the experiment on Malme-3M was 1.42 µM (inactive).
`CCC1c2[nH]c3ccccc3c2C[C@H]2C(=O)NC(C)C(=O)N12` (stereo not given in full): the GI50 with COLO 205, in the experiment on UACC-257, with SK-MEL-28, in the experiment with M14, in the experiment with SF-295 and with NCI-H226 was > 100 µM (inactive) in each case. Besides, the GI50 in the experiment with SNB-75 is 23.7 µM (inactive); in the experiment with SF-268 it was > 100 µM (inactive); in the experiment with T47D, > 100 µM (inactive); in the experiment with SN12C it was > 100 µM (inactive); in the experiment on LOX IMVI it was > 100 µM (inactive); in the experiment on A549, > 100 µM (inactive). In addition, the GI50 in the experiment on MDA-MB-435, in the experiment on K562, in the experiment with EKVX, with SNB-19, in the experiment with RXF 393 and with UO-31 was > 100 µM (inactive) in each case. In addition, in the experiment with Malme-3M, the GI50 was > 100 µM (inactive).
In the case of `Nc1ccccc1SCc1csc(-c2ccc(Cl)cc2)n1`, the GI50 in the experiment on COLO 205 is 18 µM (inactive); with UACC-257, 26.5 µM (inactive); in the experiment with SK-MEL-28, 30.5 µM (inactive); with M14 it was 17.4 µM (inactive); in the experiment with SF-295, 41.2 µM (inactive); in the experiment with NCI-H226 it was 20.7 µM (inactive). Besides, the GI50 in the experiment on SNB-75 is 46.7 µM (inactive); with SF-268, 22.8 µM (inactive); with T47D, 5.07 µM (inactive); in the experiment with SN12C it was 16.6 µM (inactive); in the experiment on LOX IMVI, 16.9 µM (inactive); in the experiment with A549, 24.5 µM (inactive). Also, the GI50 with MDA-MB-435 was 18.2 µM (inactive); in the experiment with K562 it was 16.6 µM (inactive); with EKVX, 25.9 µM (inactive); with SNB-19, 32.3 µM (inactive); in the experiment on RXF 393, 24.5 µM (inactive); in the experiment on UO-31, 15.8 µM (inactive). Further, the GI50 in the experiment with Malme-3M was 20.3 µM (inactive).
For the molecule `Cc1c(Cl)c(S(N)(=O)=O)cc2c1N=CNS2(=O)=O`, the GI50 in the experiment on COLO 205, in the experiment on UACC-257, in the experiment with SK-MEL-28, with M14, with SF-295 and in the experiment on NCI-H226 was > 100 µM (inactive) each time. The GI50 in the experiment on SNB-75, in the experiment with SF-268, in the experiment with T47D, in the experiment with SN12C, with LOX IMVI and in the experiment with A549 was > 100 µM (inactive) each time. The GI50 was > 100 µM (inactive) in the experiment with MDA-MB-435; > 100 µM (inactive) with K562; 0.507 µM (active) with EKVX; > 100 µM (inactive) in the experiment with SNB-19; > 100 µM (inactive) in the experiment with RXF 393; > 100 µM (inactive) in the experiment on UO-31. In addition, in the experiment on Malme-3M, the GI50 was > 100 µM (inactive).
As to `N#CC1(Nc2ccc(-c3ccc(NC4(C#N)CCCC4)cc3)cc2)CCCC1`, the GI50 in the experiment on COLO 205, in the experiment with UACC-257, with SK-MEL-28, in the experiment with M14, with SF-295 and with NCI-H226 was > 100 µM (inactive) throughout. Also, the GI50 in the experiment with SNB-75, in the experiment on SF-268, in the experiment on T47D, in the experiment on SN12C, in the experiment on LOX IMVI and with A549 was > 100 µM (inactive) in each case. The GI50 in the experiment on MDA-MB-435, in the experiment on K562, in the experiment with EKVX, with SNB-19, in the experiment with RXF 393 and in the experiment with UO-31 was > 100 µM (inactive) each time. Also, the GI50 in the experiment on Malme-3M is > 100 µM (inactive).
`O=C(NCCCNCCCCNCCCNC(=O)c1cc(-c2ccccc2)nc2ccccc12)c1cc(-c2ccccc2)nc2ccccc12`: the GI50 in the experiment on COLO 205 was 1.91 µM (inactive); in the experiment on UACC-257, 3.74 µM (inactive); in the experiment on SK-MEL-28, 1.87 µM (inactive); with M14, 2.15 µM (inactive); in the experiment with SF-295 it was 3.26 µM (inactive); in the experiment with NCI-H226, 1.83 µM (inactive). Moreover, the GI50 with SNB-75 was 1.85 µM (inactive); in the experiment on SF-268, 1.71 µM (inactive); with T47D it was 2.63 µM (inactive); in the experiment on SN12C, 2.23 µM (inactive); in the experiment on LOX IMVI it was 1.64 µM (inactive); in the experiment with A549, 2.12 µM (inactive). Moreover, the GI50 with MDA-MB-435 was 1.8 µM (inactive); in the experiment on K562, 2.14 µM (inactive); with EKVX it was 5.18 µM (inactive); in the experiment on SNB-19, 1.67 µM (inactive); in the experiment on RXF 393, 3.69 µM (inactive); in the experiment with UO-31 it was 20.9 µM (inactive). Also, the GI50 in the experiment with Malme-3M is 1.95 µM (inactive).
Regarding `CC(C)(C)c1ccc(-c2nnc(-c3cc(C#N)cc(-c4nnc(-c5ccc(C(C)(C)C)cc5)o4)c3)o2)cc1`, the GI50 in the experiment on COLO 205, with UACC-257, in the experiment with SK-MEL-28, with M14, with SF-295 and in the experiment with NCI-H226 was > 100 µM (inactive) each time. In addition, the GI50 was 88.9 µM (inactive) with SNB-75; > 100 µM (inactive) with SF-268; > 100 µM (inactive) in the experiment with T47D; > 100 µM (inactive) in the experiment on SN12C; > 100 µM (inactive) in the experiment with LOX IMVI; > 100 µM (inactive) in the experiment with A549. Moreover, the GI50 in the experiment with MDA-MB-435 was > 100 µM (inactive); with K562, > 100 µM (inactive); with EKVX, > 100 µM (inactive); with SNB-19 it was > 100 µM (inactive); in the experiment on RXF 393, 0.0107 µM (active); with UO-31, > 100 µM (inactive). In the experiment on Malme-3M, the GI50 is > 100 µM (inactive).
Consider `CC(O)c1cc2c(s1)C(=O)c1ccsc1C2=O` (stereo not given), for which the GI50 is 1.77 µM (inactive) in the experiment with COLO 205; 0.0167 µM (active) in the experiment with UACC-257; 0.0216 µM (active) in the experiment on SK-MEL-28; 0.0593 µM (active) in the experiment with M14; 0.0467 µM (active) with SF-295; 0.48 µM (active) in the experiment with NCI-H226. Besides, the GI50 was 0.0649 µM (active) in the experiment with SNB-75; 0.162 µM (active) in the experiment on SF-268; 0.316 µM (active) with T47D; 0.104 µM (active) in the experiment on SN12C; 0.0125 µM (active) in the experiment on LOX IMVI; 0.189 µM (active) in the experiment with A549. For the same molecule, the GI50 with MDA-MB-435 is < 0.01 µM (active); in the experiment with K562 it was 0.122 µM (active); in the experiment with EKVX it was 0.229 µM (active); in the experiment on SNB-19, 0.241 µM (active); in the experiment with RXF 393 it was 0.213 µM (active); in the experiment with UO-31 it was 0.212 µM (active). The GI50 in the experiment on Malme-3M is 0.0197 µM (active).

Source of the values: ChEMBL document CHEMBL1201862, “PubChem BioAssay data set” (2004).
